Source: patent US4272437A, “Antibacterial agents, and 4-thio azetidinone intermediates” (priority 1979, dated 1981)
In brackets after ≈: the same amount, converted by molar mass. Read-outs that look alike come from different tables or passages of the source.

Key:
Str. pneumoniae A-9585 = experiment: MIC, tube dilution, Streptococcus pneumoniae A9585; format: cell-based; details: Streptococcus pneumoniae, A9585, Str. pneumoniae A9585; overnight 37° C., Nutrient Broth; read-out: Minimum Inhibitory Concentration (M.I.C.)
Description: (§1) Representative compounds of the present invention were subjected to in vitro antibiotic screening against a variety of microorganisms.

Str. pyogenes A-9604 = experiment: MIC, tube dilution, Streptococcus pyogenes A9604; format: cell-based; details: Streptococcus pyogenes, A9604, Str. pyogenes A9604; overnight 37° C., Nutrient Broth; read-out: Minimum Inhibitory Concentration (M.I.C.)
Description: as §1

Staph. aureus A-9537 = experiment: MIC, tube dilution, Staphylococcus aureus A9537; format: cell-based; details: Staphylococcus aureus, A9537, Staph. aureus A9537; overnight 37° C., Nutrient Broth; read-out: Minimum Inhibitory Concentration (M.I.C.)
Description: as §1

[1] = test system: Staph. aureus A-9537 and 50% serum; experiment: MIC, tube dilution, Staph. aureus A9537 + 50% serum; format: cell-based, Staphylococcus aureus; details: Staphylococcus aureus, overnight 37° C., read-out: Minimum Inhibitory Concentration (M.I.C.)
Description: as §1

[2] = test system: Staph. aureus (Pen-Res) A-9606; experiment: MIC, tube dilution, Staphylococcus aureus A9606 (Pen-Res); format: cell-based; details: Staphylococcus aureus, overnight 37° C.
Description: as §1

[3] = test system: Staph. aureus (Meth-Res) A-15097; experiment: MIC, tube dilution, Staphylococcus aureus A15097 (Meth-Res); format: cell-based; details: Staphylococcus aureus, overnight 37° C.
Description: as §1

Str. faecalis A-20688 = experiment: MIC, tube dilution, Streptococcus faecalis A20688; format: cell-based; details: Enterococcus faecalis, A20688, Str. faecalis A20688; overnight 37° C.; read-out: Minimum Inhibitory Concentration (M.I.C.)
Description: as §1

E. coli A-15119 = experiment: MIC, tube dilution, Escherichia coli A15119; format: cell-based; details: Escherichia coli, A15119, E. coli A15119; overnight 37° C.; read-out: Minimum Inhibitory Concentration (M.I.C.)
Description: as §1

E. coli A-20341-1 = experiment: MIC, tube dilution, Escherichia coli A20341-1; format: cell-based; details: Escherichia coli, A203411; E. coli A20341-1; overnight 37° C.; read-out: Minimum Inhibitory Concentration (M.I.C.)
Description: as §1

K. pneumoniae A-15130 = experiment: MIC, tube dilution, Klebsiella pneumoniae A15130; format: cell-based; details: Klebsiella pneumoniae, A15130, K. pneumoniae A15130; overnight 37° C.; read-out: Minimum Inhibitory Concentration (M.I.C.)
Description: as §1

[4] = test system: Klebsiella species A20468; experiment: MIC, tube dilution, Klebsiella species A20468; format: cell-based; details: Klebsiella species (K. pneumoniae) A20468; overnight 37° C.; read-out: Minimum Inhibitory Concentration (M.I.C.)
Description: as §1

Pr. mirabilis A-9900 = experiment: MIC, tube dilution, Proteus mirabilis A9900; format: cell-based; details: Proteus mirabilis, A9900, Proteus mirabilis A9900; overnight 37° C.; read-out: Minimum Inhibitory Concentration (M.I.C.)
Description: as §1

Pr. vulgaris A-9716 = experiment: MIC, tube dilution, Proteus vulgaris / Proteus mirabilis A9716; format: cell-based, Proteus vulgaris (name changed to Proteus mirabilis); details: Proteus vulgaris, overnight 37° C.
Description: as §1

Pr. morganii A-15153 = experiment: MIC, tube dilution, Proteus morganii A15153; format: cell-based; details: Morganella morganii, A15153, Proteus morganii A15153; overnight 37° C.; read-out: Minimum Inhibitory Concentration (M.I.C.)
Description: as §1

Ser. marcescens A-20019 = experiment: MIC, tube dilution, Serratia marcescens A20019; format: cell-based; details: Serratia marcescens, A20019, Serratia marcescens A20019; overnight 37° C.; read-out: Minimum Inhibitory Concentration (M.I.C.)
Description: as §1

Ent. cloacae A-9659 = experiment: MIC, tube dilution, Enterobacter cloacae A9659; format: cell-based; details: Enterobacter cloacae, A9659, Enterobacter cloacae A9659; overnight 37° C.; read-out: Minimum Inhibitory Concentration (M.I.C.)
Description: as §1

Ent. cloacae A-9656 = experiment: MIC, tube dilution, Enterobacter cloacae A9656; format: cell-based; details: overnight 37° C., read-out: Minimum Inhibitory Concentration (M.I.C.)
Description: as §1

Ps. aeruginosa A-9843A = experiment: MIC, tube dilution, Pseudomonas aeruginosa A9843A; format: cell-based; details: Pseudomonas aeruginosa, A9843A, read-out: Minimum Inhibitory Concentration (M.I.C.), Pseudomonas aeruginosa A9843A; overnight 37° C.
Description: as §1

Ps. aeruginosa A-21213 = experiment: MIC, tube dilution, Pseudomonas aeruginosa A21213; format: cell-based; details: Pseudomonas aeruginosa A21213; overnight 37° C.; read-out: Minimum Inhibitory Concentration (M.I.C.)
Description: as §1

Proteus rettgeri A21203 = experiment: MIC, tube dilution, Proteus rettgeri A21203; format: cell-based; details: Providencia rettgeri, overnight 37° C., read-out: Minimum Inhibitory Concentration (M.I.C.)
Description: as §1

[5] = Staph. aureus A9606 (Pen-Res), read-out: Minimum Inhibitory Concentration (M.I.C.)
[6] = read-out: Minimum Inhibitory Concentration (M.I.C.), Staph. aureus A15097 (Meth-Res)
[7] = A9716, Proteus vulgaris / Proteus mirabilis A9716, read-out: Minimum Inhibitory Concentration (M.I.C.)
[8] = Enterobacter cloacae, A9656, Enterobacter cloacae A9656
[9] = A21203, Proteus rettgeri A21203
[10] = read-out: Minimum Inhibitory Concentration (M.I.C.), Staph. aureus A9606 (Pen-Res)
[11] = A9716, read-out: Minimum Inhibitory Concentration (M.I.C.), Proteus vulgaris / Proteus mirabilis A9716

SMILES	MIC (Str. pneumoniae A-9585) [mg/L]	MIC (Str. pyogenes A-9604) [mg/L]	MIC (Staph. aureus A-9537) [mg/L]	MIC [1] [mg/L]	MIC [2, 5] [mg/L]	MIC [3, 6] [mg/L]	MIC (Str. faecalis A-20688) [mg/L]	MIC (E. coli A-15119) [mg/L]	MIC (E. coli A-20341-1) [mg/L]	MIC (K. pneumoniae A-15130) [mg/L]	MIC [4] [mg/L]	MIC (Pr. mirabilis A-9900) [mg/L]	MIC (Pr. vulgaris A-9716; [7]) [mg/L]	MIC (Pr. morganii A-15153) [mg/L]	MIC (Ser. marcescens A-20019) [mg/L]	MIC (Ent. cloacae A-9659) [mg/L]	MIC (Ent. cloacae A-9656; [8]) [mg/L]	MIC (Ps. aeruginosa A-9843A) [mg/L]	MIC (Ps. aeruginosa A-21213) [mg/L]	MIC (Proteus rettgeri A21203; [9]) [mg/L]	other results
Cn1cc(C2=C(C(=O)O)N3C(=O)CC3S2)cn1 (centres unmarked) [Example 15]	0.13 (≈ 0.517 µM)	0.5 (≈ 1.99 µM)	1 (≈ 3.98 µM)	> 63	32 (≈ 127 µM)	125 (≈ 497 µM)	63 (≈ 251 µM)	16 (≈ 63.7 µM)	> 125	125 (≈ 497 µM)	> 125	16 (≈ 63.7 µM)	16 (≈ 63.7 µM)	63 (≈ 251 µM)	63 (≈ 251 µM)	125 (≈ 497 µM)	63 (≈ 251 µM)	125 (≈ 497 µM)	125 (≈ 497 µM)	16 (≈ 63.7 µM)	–
O=C(O)C1=C(Cc2c[nH]c3ccccc23)SC2CC(=O)N12 (centres unmarked) [Preparation 19, 2-(3'-Indole)methylpenem-3-carboxylic Acid]	0.03 (≈ 0.0999 µM)	0.06 (≈ 0.2 µM)	0.03 (≈ 0.0999 µM)	32	0.5 (≈ 1.66 µM)	125 (≈ 416 µM)	125 (≈ 416 µM)	8 (≈ 26.6 µM)	> 125	32 (≈ 107 µM)	> 125	1 (≈ 3.33 µM)	2 (≈ 6.66 µM)	2 (≈ 6.66 µM)	63 (≈ 210 µM)	63 (≈ 210 µM)	63 (≈ 210 µM)	> 125	> 125	2 (≈ 6.66 µM)	–
CC(C)(C)CC1=C(C(=O)O)N2C(=O)CC2S1 (centres unmarked) [Preparation 23, 2-(2',2'-Dimethylpropyl)penem-3-carboxylate]	0.25 (≈ 1.04 µM)	0.25 (≈ 1.04 µM)	0.25 (≈ 1.04 µM)	> 63	32 (≈ 133 µM)	125 (≈ 518 µM)	> 125	16 (≈ 66.3 µM)	> 125	125 (≈ 518 µM)	> 125	2 (≈ 8.29 µM)	4 (≈ 16.6 µM)	63 (≈ 261 µM)	125 (≈ 518 µM)	125 (≈ 518 µM)	–	> 125	> 125	32 (≈ 133 µM)	MIC (Ent. cloacae A-9656; Enterobacter cloacae A9656): > 125 mg/L
CSC(SC)C1=C(C(=O)O)N2C(=O)CC2S1 (centres unmarked) [Preparation 26, Sodium 2-(Dimethyldithiomethyl)penem-3-carboxylate]	2	4	4	> 63	–	> 125	> 125	32	> 125	> 125	> 125	32	32	63	63	63	63	125	125	32	MIC [2, 10]: 125 mg/L
Cc1cc(CC2=C(C(=O)O)N3C(=O)CC3S2)on1 (centres unmarked) [Example 20]	8 (≈ 30 µM)	63 (≈ 237 µM)	> 125	> 63	–	> 125	> 125	> 125	> 125	> 125	> 125	> 125	–	125 (≈ 469 µM)	> 125	> 125	–	125 (≈ 469 µM)	125 (≈ 469 µM)	–	MIC [2, 10]: > 125 mg/L; MIC (Pr. vulgaris A-9716; [11]): 125 mg/L (≈ 469 µM); MIC (Ent. cloacae A-9656; Enterobacter cloacae A9656): > 125 mg/L; MIC (Proteus rettgeri A21203; Proteus rettgeri A21203): 125 mg/L (≈ 469 µM)
CCOP(=O)(CCC1=C(C(=O)O)N2C(=O)CC2S1)OCC (centres unmarked) [Preparation 25, 2'-(2'-Diethylphosphono-1'-ethyl)penem-3-carboxylic Acid]	125 (≈ 373 µM)	> 125	1 (≈ 2.98 µM)	8	–	4 (≈ 11.9 µM)	125 (≈ 373 µM)	8 (≈ 23.9 µM)	2 (≈ 5.96 µM)	125 (≈ 373 µM)	4 (≈ 11.9 µM)	8 (≈ 23.9 µM)	–	63 (≈ 188 µM)	63 (≈ 188 µM)	16 (≈ 47.7 µM)	–	125 (≈ 373 µM)	> 125	–	MIC [2, 10]: 32 mg/L (≈ 95.4 µM); MIC (Pr. vulgaris A-9716; [11]): 63 mg/L (≈ 188 µM); MIC (Ent. cloacae A-9656; Enterobacter cloacae A9656): 16 mg/L (≈ 47.7 µM); MIC (Proteus rettgeri A21203; Proteus rettgeri A21203): 32 mg/L (≈ 95.4 µM)
Nc1ccccc1CC1=C(C(=O)O)N2C(=O)CC2S1 (centres unmarked) [Example 45, Sodium 2-(2'-Aminophenyl)methylpenem-3-carboxylate]	0.5	1	1	63	4	125	125	125	125	125	125	32	63	125	125	125	–	125	125	63	MIC (Ent. cloacae A-9656; Enterobacter cloacae A9656): 125 mg/L
O=C(O)C1=C(c2cscn2)SC2CC(=O)N12 (centres unmarked) [Preparation 27, 2-(4'-Thiazolyl)penem-3-carboxylic Acid]	0.13 (≈ 0.511 µM)	0.25 (≈ 0.983 µM)	0.5 (≈ 1.97 µM)	> 63	8 (≈ 31.5 µM)	–	4 (≈ 15.7 µM)	8 (≈ 31.5 µM)	125 (≈ 492 µM)	125 (≈ 492 µM)	> 125	4 (≈ 15.7 µM)	4 (≈ 15.7 µM)	32 (≈ 126 µM)	63 (≈ 248 µM)	125 (≈ 492 µM)	63 (≈ 248 µM)	125 (≈ 492 µM)	125 (≈ 492 µM)	16 (≈ 62.9 µM)	MIC ([3]; Staph. aureus A15097 (Meth-Res), read-out: Minimum Inhibitory Concentration (M.I.C.)): 8 mg/L (≈ 31.5 µM)
O=C(O)C1=C(C2CCC2)SC2CC(=O)N12 (centres unmarked) [Example 21, 2-Cyclobutylpenem-3-carboxylic Acid]	0.13 (≈ 0.577 µM)	1 (≈ 4.44 µM)	0.13 (≈ 0.577 µM)	> 63	8 (≈ 35.5 µM)	> 125	16 (≈ 71 µM)	4 (≈ 17.8 µM)	125 (≈ 555 µM)	16 (≈ 71 µM)	> 125	2 (≈ 8.88 µM)	2 (≈ 8.88 µM)	16 (≈ 71 µM)	16 (≈ 71 µM)	16 (≈ 71 µM)	32 (≈ 142 µM)	125 (≈ 555 µM)	125 (≈ 555 µM)	4 (≈ 17.8 µM)	–
CON=C(C)CC1=C(C(=O)O)N2C(=O)CC2S1 (centres unmarked) [Example 44, Sodium 2-(Acetonylmethyl oxime)-penem-3-carboxylate]	2	16	32	> 63	–	> 125	125	63	> 125	> 125	> 125	63	63	125	> 125	> 125	–	125	125	–	MIC [2, 10]: > 125 mg/L; MIC (Ent. cloacae A-9656; Enterobacter cloacae A9656): > 125 mg/L; MIC (Proteus rettgeri A21203; Proteus rettgeri A21203): 125 mg/L
